# Literature values as cited in US20150157714A1, “IMPLEMENTATION OF NON-PATHOGENIC BIOLUMINESCENT BACTERIA AS A SUB-MICRON LIGHT EMITTING SOURCE FOR PHOTO-DYNAMIC THERAPY IN THE LUNGS” (priority 2013, published 2015).
# System: not given
# Settings: absorption spectra wavelengths for photochemical interactions
row,Molecule,Spectral Absorption Ranges and Peaks
1,CCOC(=O)C1=Cc2c3nc(cc4nc(cc5[n-]c(cc6[n-]c2c(C)c6CC)c(C)c5CC)C(C)=C4CC)[C@@H](C)[C@]13CC.[Cl-].[Cl-].[Sn] (racemic) [Tin etiopurpurin],660 nm
2,Cc1c(C(=O)O)c(O)cc2c1C(=O)c1c(O)c(C3O[C@H](CO)[C@@H](O)[C@H](O)[C@H]3O)c(O)c(O)c1C2=O (stereo in doubt) [Carmine],500-570 nm
3,NCC(=O)CCC(=O)O [ALA],635 nm
4,COc1cc(S(=O)(=O)[O-])c(C)cc1N=Nc1c(O)ccc2cc(S(=O)(=O)[O-])ccc12.[Na+].[Na+] [Allura Red AC],504 nm
5,CNc1ccc2nc3ccc(N)cc3[s+]c2c1.[Cl-] [Azure C],580-640 nm
6,CC1=C(/C=C/C(C)=C/C=C/C(C)=C/C=C/C=C(C)/C=C/C=C(C)/C=C/C2=C(C)CCCC2(C)C)C(C)(C)CCC1 [Beta carotene],470 nm
7,O=S(=O)([O-])c1cc(S(=O)(=O)[O-])c2c(N=Nc3ccc(S(=O)(=O)[O-])c4ccccc34)c(O)ccc2c1.[Na+].[Na+].[Na+] [Brilliant Scarlet 4R],503 nm
8,O=S(=O)([O-])c1ccc(N=Nc2cc(S(=O)(=O)[O-])c3ccccc3c2O)c2ccccc12.[Na+].[Na+] [Carmoisine azorubine],515 nm
9,O=S(=O)([O-])c1ccc(/N=N/c2cc(S(=O)(=O)[O-])c3ccccc3c2O)c2ccccc12.[Na+].[Na+] [Chromotrope FB],512 nm
10,Nc1c(/N=N/c2ccc(-c3ccc(/N=N/c4cc(S(=O)(=O)O)c5ccccc5c4N)cc3)cc2)cc(S(=O)(=O)O)c2ccccc12 [Congo Red],400-560 nm
11,CN(C)c1ccc(C(=C2C=CC(=[N+](C)C)C=C2)c2ccc(N(C)C)cc2)cc1 [Crystal Violet],550-610 nm
12,CC(=O)Nc1ccc2nc3c4ccccc4c(=N)cc-3oc2c1.Cl [Darrow Red],450-550 nm
13,O=C([O-])c1ccccc1-c1c2cc(Br)c(=O)c(Br)c-2oc2c(Br)c([O-])c(Br)cc12.[Na+].[Na+] [Eosin Y],490-530 nm
14,CCN(Cc1cccc(S(=O)(=O)[O-])c1)c1ccc(C(=C2C=CC(=[N+](CC)Cc3cccc(S(=O)(=O)[O-])c3)C=C2)c2ccccc2S(=O)(=O)[O-])cc1.[Na+].[Na+] [Erioglaucine disodium salt],629 nm
15,O.O=C([O-])c1ccccc1-c1c2cc(I)c(=O)c(I)c-2oc2c(I)c([O-])c(I)cc12.[Na+].[Na+] [Erythrosin B],510-540 nm
16,CCOC(=O)c1ccccc1-c1c2cc(Br)c(=O)c(Br)c-2oc2c(Br)c([O-])c(Br)cc12.[K+] [Ethyl Eosin],530-550 nm
17,CCN(Cc1cccc(S(=O)(=O)[O-])c1)c1ccc(C(=C2C=CC(=[N+](CC)Cc3cccc(S(=O)(=O)[O-])c3)C=C2)c2ccc(O)cc2S(=O)(=O)[O-])cc1.[Na+].[Na+] [Fast Green],560+ nm
18,O=C1/C(=C2\Nc3ccc(S(=O)(=O)[O-])cc3C2=O)Nc2ccc(S(=O)(=O)[O-])cc21.[Na+].[Na+] [Indigo Carmine],608 nm
19,CCN(Cc1cccc(S(=O)(=O)O)c1)c1ccc(C(=C2C=CC(=[N+](CC)Cc3cccc(S(=O)(=O)O)c3)C=C2)c2ccc(S(=O)(=O)O)cc2)cc1.[Na+].[Na+] [Light Green SF],590+ nm
20,CN(C)c1ccc(C(=C2C=CC(=[N+](C)C)C=C2)c2c(O)c(S(=O)(=O)[O-])cc3cc(S(=O)(=O)[O-])ccc23)cc1.[Na+] [Lissamine green],633 nm
21,CC(C)=CCC/C(C)=C/C=C/C(C)=C/C=C/C(C)=C/C=C/C=C(C)/C=C/C=C(C)/C=C/C=C(\C)CCC=C(C)C [Lycopene],530 nm
22,CN(C)c1ccc(C(=C2C=CC(=[N+](C)C)C=C2)c2ccc([N+](C)(C)C)cc2)cc1.[Cl-].[Cl-] [Methyl Green],560+ nm
23,CN(C)c1ccc2nc3ccc(=[N+](C)C)cc-3sc2c1 [Methylene Blue],590+ nm
24,Cc1cc2nc3ccc(N(C)C)cc3nc2cc1N.Cl [Neutral Red],480-570 nm
25,O=S(=O)([O-])c1cc(S(=O)(=O)[O-])c2c(N=Nc3ccc(S(=O)(=O)[O-])c4ccccc34)c(O)ccc2c1.[Na+].[Na+].[Na+] [New Coccine],506 nm
26,Nc1c(O)c(S(=O)(=O)[O-])c(O)c2c1C(=O)c1ccccc1C2=O.[Na+] [Nuclear Fast Red],460-550 nm

row,Molecule,Spectral Absorption Ranges and Peaks
1,O=S(=O)(O)c1cc(S(=O)(=O)O)c2c(/N=N/c3ccccc3)c(O)ccc2c1 [Orange G],450-510 nm
2,O=C([O-])c1c(Cl)c(Cl)c(Cl)c(Cl)c1-c1c2cc(Br)c(=O)c(Br)c-2oc2c(Br)c([O-])c(Br)cc12.[Na+].[Na+] [Phloxine B],520+ nm
3,Cc1cc2nc3c(=O)[nH]c(=O)nc-3n(C[C@H](O)[C@H](O)[C@H](O)COP(=O)([O-])O)c2cc1C.[Na+] [Riboflavin 5′-monophosphate sodium salt],441 nm
4,O=C([O-])c1c(Cl)c(Cl)c(Cl)c(Cl)c1-c1c2cc(I)c(=O)c(I)c-2oc2c(I)c([O-])c(I)cc12.[Na+].[Na+] [Rose bengal],548 nm
5,Cc1cc2nc3cc(C)c(N)cc3[n+](-c3ccccc3)c2cc1N.[Cl-] [Safranin O],470-550 nm
6,"CCOC(=O)C1=Cc2c3nc(cc4nc(cc5[n-]c(cc6[n-]c2c(C)c6CC)c(C)c5CC)C(C)=C4CC)[C@@H](C)[C@]13CC.[Cl-].[Cl-].[Sn] [SnEt2 (Purlytin), SnEt2]",660 nm
7,Cc1ccccc1/N=N/c1ccc(/N=N/c2c(O)ccc3ccccc23)c(C)c1 [Sudan IV],470-580 nm
8,"C=Cc1c(C)c2cc3nc(c(CC(=O)N[C@@H](CC(=O)O)C(=O)O)c4[nH]c(cc5nc(cc1[nH]2)C(C)=C5CC)c(C)c4C(=O)O)[C@@H](CCC(=O)O)[C@@H]3C [Talaporfin (LS11, MACE, Npe6), Talaporfin]",660 nm
9,O=C([O-])C1=NN(c2ccc(S(=O)(=O)[O-])cc2)C(=O)C1N=Nc1ccc(S(=O)(=O)[O-])cc1.[Na+].[Na+].[Na+] (stereo not drawn) [Tartrazine],400-460 nm
10,Cc1cc2nc3ccc(N(C)C)cc3[s+]c2cc1N.[Cl-] [Toluidine Blue],560+ nm
11,Cc1cc(-c2ccc(/N=N/c3c(S(=O)(=O)O)cc4cc(S(=O)(=O)O)cc(N)c4c3O)c(C)c2)ccc1/N=N/c1c(S(=O)(=O)O)cc2cc(S(=O)(=O)O)cc(N)c2c1O [Trypan Blue],500+ nm
12,Acid Fuchsin,530-560 nm
13,Aniline Blue,550-620 nm
14,Azure B,580+ nm
15,BPD-ma,689 nm
16,Basic Fuchsin,520-570 nm
17,Brilliant Cresyl Blue,550+ nm
18,HPPH,665 nm
19,Luxol Fast Blue,500-640 nm
20,Mono-N-Aspartyl Chlorin e6,664 nm
21,"Nickel 5,10-bis-acrylate etioporphyrin I",580 nm
22,Phthalocyanine-4,670 nm
23,Silicon phthalocyanine [Silicon phthalocyanine (Pc4)],675 nm
24,Sudan Red,450-590 nm
25,Taporfin Sodium,664 nm
26,Verteporfin,690 nm

# Same assay, conditions: visible light absorption peaks named in text
row,Molecule,absorption peak
1,C=Cc1c(C)c2cc3nc(c(CC(=O)O)c4[nH]c(cc5nc(cc1[nH]2)C(C)=C5CC)c(C)c4C(=O)O)[C@@H](CCC(=O)O)[C@@H]3C [Chlorin e6],410 nm
2,Si(IV)-naphthocyanine,773 nm

# System: methicillin-resistant Staphylococcus aureus (MRSA)
# Settings: with 632.8 nm light
row,Molecule,eradication of MRSA
1,Cc1cc2nc3ccc(N(C)C)cc3[s+]c2cc1N.[Cl-] [Toluidine Blue],eradicate

# System: multi-drug resistant Pseudomonas aeruginosa (Gram −) isolates
# Settings: 60 different multi-drug resistant isolates
row,Molecule,reduction of isolates with PDT
1,Cc1cc2nc3ccc(N(C)C)cc3[s+]c2cc1N.[Cl-] [Toluidine Blue],significantly reduced

# System: Multidrug-resistant Pseudomonas aeruginosa
# Settings: 635 nm light
row,Molecule,susceptibility to photosensitizer and light
1,CN(C)c1ccc2nc3ccc(=[N+](C)C)cc-3sc2c1 [Methylene Blue],susceptibility

# System: not given
# Settings: FIG. 1, representative spectral curve
Molecule,spectral curve runs to wavelength,spectral curve starts at wavelength,spectral peak of emitted light
Mutated Firefly luciferase S284T: mutated firefly luciferase S284T,about 720 nm,about 520 nm,about 630 nm
"Wild-type Firefly luciferase (FFluc): Wild-type Firefly luciferase from Photinus pyralis, uses D-luciferin, ATP dependent",about 680 nm,about 460 nm,about 557 nm
